Experiments:
Format in all cases: cell-based
[1] = tested on: SN12C; assay: SRB growth assay, 2 days exposure, renal cancer
Protocol: (§1) Arsenic trioxide (1 mg/ml, 10 mg/ampoule, manufactured by Taylor Pharmaceuticals, Decatur, Ill.) was tested at five concentrations each at 10-fold dilutions, i.e., 10^−5, 10^−6, 10^−7, 10^−8 and 10^−9 μg/ml.
(§2) The in vitro tests were performed by incubating the test cells in the presence of the indicated concentration of arsenic trioxide under standard culture conditions for a designated period of time, which is followed by a sulforhodamine B (SRB) protein assay to estimate cell viability or growth. The cell lines are organized into subpanels according to the origin of the cell lines, e.g., leukemia, breast cancer, etc. A description of the cell lines and method of testing is described in Monk et al. (1997, Anticancer Drug Des. 12:533-41) and Weinstein et al., (1997, Science 275:343-9), which are incorporated herein in their entirety.
(§3) The measurement of an effect is expressed in Percentage Growth (PG). The measured effect of the compound on a cell line is calculated according to one or the other of the following two expressions: If (Mean ODtest−Mean ODzero)≧0. then PG=100×(Mean ODtest−Mean ODzero)/(Mean ODctrl−Mean ODzero) If (Mean ODtest−Mean ODzero)<0. then PG=100×(Mean ODtest−Mean ODzero)/(Mean ODzero where: • Mean ODzero=the average of optical density measurements of SRB-derived color just before exposure of cells to the test compounds; • Mean ODtest=the average of optical density measurements of SRB-derived color after exposure of cells to the test compound for a designated period of time; and • Mean ODctrl=the average of optical density measurements of SRB-derived color after with no exposure of cells to the test compound for a designated period of time
(§4) The first two columns describe the subpanel (e.g., leukemia) and cell line (e.g., CCRF-CEM) involved. The next two columns list the Mean ODzero and Mean ODctrl; the next five columns list the Mean ODtest for each of five different concentrations. Each concentration is expressed as the log10 (molar or μg/ml). The next five columns list the calculated PGs for each concentration. The response parameters GI50, TGI and LC50 are interpolated values representing the concentrations at which the PG is +50, 0, and −50, respectively. Sometimes these response parameters cannot be obtained by interpolation. If, for instance, all of the PGs in a given row exceed +50, then none of the three parameters can be obtained by interpolation. In such a case, the value given for each response parameter is the highest concentration tested and is preceded by a “>” sign. This practice is extended similarly to the other possible situations where a response parameter cannot be obtained by interpolation.
(§5) In the first set, the cells from 56 different cancer cell lines were exposed to five concentrations of arsenic trioxide continuously for two days prior to performing the SRB assay. In the second set, the cells from 50 different cell lines (a subset of the first 56 cell lines, plus the renal cancer cell line 786-0) were exposed continuously for six days prior to the SRB assay.

[2] = tested on: CAKI-1; assay: SRB growth assay, 2 days exposure, renal cancer
Protocol: as §1, §2, §3, §4, §5

[3] = tested on: RXE 393; assay: SRB growth assay, 2 days exposure, renal cancer
Protocol: as §1, §2, §3, §4, §5

[4] = tested on: TX-10; assay: SRB growth assay, 2 days exposure, renal cancer
Protocol: as §1, §2, §3, §4, §5

[5] = tested on: UO-31; assay: SRB growth assay, 2 days exposure, renal cancer
Protocol: as §1, §2, §3, §4, §5

[6] = tested on: A498; assay: SRB growth assay, 2 days exposure, renal cancer
Protocol: as §1, §2, §3, §4, §5

[7] = tested on: NCI/ADR-RES; assay: SRB growth assay, 2 days exposure, breast cancer
Protocol: as §1, §2, §3, §4, §5

[8] = tested on: MDA-MB-435; assay: SRB growth assay, 2 days exposure, breast cancer
Protocol: as §1, §2, §3, §4, §5

[9] = tested on: BT-549; assay: SRB growth assay, 2 days exposure, breast cancer
Protocol: as §1, §2, §3, §4, §5

[10] = tested on: EKVX; assay: SRB growth assay, 2 days exposure, non-small cell lung cancer
Protocol: as §1, §2, §3, §4, §5

[11] = tested on: A549/ATCC; assay: as above
Protocol: as §1, §2, §3, §4, §5

[12] = tested on: HOP-62; assay: as above
Protocol: as §1, §2, §3, §4, §5

[13] = tested on: NCI-8322M; assay: as above
Protocol: as §1, §2, §3, §4, §5

[14] = tested on: NCI-H23; assay: as above
Protocol: as §1, §2, §3, §4, §5

With arsenic trioxide the TGI [1] was 0.00696 ng/mL, the “Percent Growth” value ([1]; log10 conc −4.9) was −28% and the “Percent Growth” value ([1]; log10 conc −5.9) was 81%. For the same substance, the “Percent Growth” value ([1]; log10 conc −6.9) was 88%, the “Percent Growth” value ([1]; log10 conc −7.9) was 96% and the “Percent Growth” value ([1]; log10 conc −8.9) was 97%. The TGI [2] was 0.00913 ng/mL, the “Percent Growth” value ([2]; log10 conc −4.9) was −13% and the “Percent Growth” value ([2]; log10 conc −5.9) was 78%. For the same substance, the “Percent Growth” value ([2]; log10 conc −6.9) was 128%, the “Percent Growth” value ([2]; log10 conc −7.9) was 103% and the “Percent Growth” value ([2]; log10 conc −8.9) was 120%. The TGI [3] was greater than 0.0126 ng/mL, the “Percent Growth” value ([3]; log10 conc −4.9) was 7% and the “Percent Growth” value ([3]; log10 conc −5.9) was 67%. For the same substance, the “Percent Growth” value ([3]; log10 conc −6.9) was 109%, the “Percent Growth” value ([3]; log10 conc −7.9) was 74% and the “Percent Growth” value ([3]; log10 conc −8.9) was 23%. For the same substance, the TGI [4] was greater than 0.0126 ng/mL, the “Percent Growth” value ([4]; log10 conc −4.9) was 55% and the “Percent Growth” value ([4]; log10 conc −5.9) was 96%. The “Percent Growth” value ([4]; log10 conc −6.9) was 102%, the “Percent Growth” value ([4]; log10 conc −7.9) was 96% and the “Percent Growth” value ([4]; log10 conc −8.9) was 98%. The TGI [5] was greater than 0.0126 ng/mL, the “Percent Growth” value ([5]; log10 conc −4.9) was 42% and the “Percent Growth” value ([5]; log10 conc −5.9) was 103%. The “Percent Growth” value ([5]; log10 conc −6.9) was 110%, the “Percent Growth” value ([5]; log10 conc −7.9) was 108% and the “Percent Growth” value ([5]; log10 conc −8.9) was 105%. For the same substance, the TGI [6] was 0.00971 ng/mL, the “Percent Growth” value ([6]; log10 conc −4.9) was −11% and the “Percent Growth” value ([6]; log10 conc −5.9) was 84%. The “Percent Growth” value ([6]; log10 conc −6.9) was 89%, the “Percent Growth” value ([6]; log10 conc −7.9) was 93% and the “Percent Growth” value ([6]; log10 conc −8.9) was 105%. For the same substance, the TGI [7] was greater than 0.0126 ng/mL, the “Percent Growth” value ([7]; log10 conc −4.9) was 45% and the “Percent Growth” value ([7]; log10 conc −5.9) was 92%. The “Percent Growth” value ([7]; log10 conc −6.9) was 104%, the “Percent Growth” value ([7]; log10 conc −7.9) was 99% and the “Percent Growth” value ([7]; log10 conc −8.9) was 118%. The TGI [8] was greater than 0.0126 ng/mL, the “Percent Growth” value ([8]; log10 conc −4.9) was 21% and the “Percent Growth” value ([8]; log10 conc −5.9) was 94%. For the same substance, the “Percent Growth” value ([8]; log10 conc −6.9) was 105%, the “Percent Growth” value ([8]; log10 conc −7.9) was 93% and the “Percent Growth” value ([8]; log10 conc −8.9) was 94%. The TGI [9] was greater than 0.0126 ng/mL, the “Percent Growth” value ([9]; log10 conc −4.9) was 26% and the “Percent Growth” value ([9]; log10 conc −5.9) was 84%. For the same substance, the “Percent Growth” value ([9]; log10 conc −6.9) was 108%, the “Percent Growth” value ([9]; log10 conc −7.9) was 110% and the “Percent Growth” value ([9]; log10 conc −8.9) was 114%. For the same substance, the TGI [10] was greater than 0.0126 ng/mL, the “Percent Growth” value ([10]; log10 conc −4.9) was 11% and the “Percent Growth” value ([10]; log10 conc −5.9) was 130%. The “Percent Growth” value ([10]; log10 conc −6.9) was 127%, the “Percent Growth” value ([10]; log10 conc −7.9) was 129% and the “Percent Growth” value ([10]; log10 conc −8.9) was 119%. The TGI [11] was greater than 0.0126 ng/mL, the “Percent Growth” value ([11]; log10 conc −4.9) was 69% and the “Percent Growth” value ([11]; log10 conc −5.9) was 108%. The “Percent Growth” value ([11]; log10 conc −6.9) was 100%, the “Percent Growth” value ([11]; log10 conc −7.9) was 102% and the “Percent Growth” value ([11]; log10 conc −8.9) was 100%. The TGI [12] was greater than 0.0126 ng/mL, the “Percent Growth” value ([12]; log10 conc −4.9) was 35% and the “Percent Growth” value ([12]; log10 conc −5.9) was 97%. The “Percent Growth” value ([12]; log10 conc −6.9) was 100%, the “Percent Growth” value ([12]; log10 conc −7.9) was 99% and the “Percent Growth” value ([12]; log10 conc −8.9) was 97%. For the same substance, the TGI [13] was greater than 0.0126 ng/mL, the “Percent Growth” value ([13]; log10 conc −4.9) was 61% and the “Percent Growth” value ([13]; log10 conc −5.9) was 99%. The “Percent Growth” value ([13]; log10 conc −6.9) was 97%, the “Percent Growth” value ([13]; log10 conc −7.9) was 106% and the “Percent Growth” value ([13]; log10 conc −8.9) was 117%. For the same substance, the TGI [14] was greater than 0.0126 ng/mL, the “Percent Growth” value ([14]; log10 conc −4.9) was 58% and the “Percent Growth” value ([14]; log10 conc −5.9) was 101%. For the same substance, the “Percent Growth” value ([14]; log10 conc −6.9) was 127%, the “Percent Growth” value ([14]; log10 conc −7.9) was 121% and the “Percent Growth” value ([14]; log10 conc −8.9) was 115%.

Reference: patent US6875451B2, “Compositions and methods for the treatment of primary and metastatic neoplastic diseases using arsenic compounds” (PolaRx Biopharmaceuticals Inc., priority 1997, dated 2005)
